This note sets out measurements from patent publication US9090615B2, “Adamantyl derivatives as cannabinoid receptor 2 agonists” (Hoffmann-La Roche Inc., priority 2012, dated 2015).

Assay [1] addresses T1, human CB1 receptors (Homo sapiens, UniProt P21554).
T1 construct: expressed in transfected cells; host or cells: CHO cells
As to the kind of experiment: functional cAMP assay, CHO cells expressing human CB1. It counts as cell-based. On the procedure: CHO cells expressing human CB1 or CB2 receptors are seeded 17-24 hours prior to the experiment 50.000 cells per well in a black 96 well plate with flat clear bottom (Corning Costar #3904) in DMEM (Invitrogen No. 31331), 1×HT supplement, with 10% fetal calf serum and incubated at 5% CO2 and 37° C. in a humidified incubator. The growth medium was exchanged with Krebs Ringer Bicarbonate buffer with 1 mM IBMX and incubated at 30° C. for 30 min. Compounds were added to a final assay volume of 100 μl and incubated for 30 min at 30° C. Using the cAMP-Nano-TRF detection kit the assay (Roche Diagnostics) was stopped by the addition of 50 μl lysis reagent (Tris, NaCl, 1.5% Triton X100, 2.5% NP40, 10% NaN3) and 50 μl detection solutions (20 μM mAb Alexa700-cAMP 1:1, and 48 μM Ruthenium-2-AHA-cAMP) and shaken for 2 h at room temperature. The time-resolved energy transfer is measured by a TRF reader (Evotec Technologies GmbH), equipped with a ND:YAG laser as excitation source. The plate is measured twice with the excitation at 355 nm and at the emission with a delay of 100 ns and a gate of 100 ns, total exposure time 10 s at 730 (bandwidth 30 nm) or 645 nm (bandwidth 75 nm), respectively. The FRET signal is calculated as follows: FRET=T730-Alexa730-P(T645-B645) with P=Ru730-B730/Ru645-B645, where T730 is the test well measured at 730 nM, T645 is the test well measured at 645 nm, B730 and B645 are the buffer controls at 730 nm and 645 nm, respectively. cAMP content is determined from the function of a standard curve spanning from 10 μM to 0.1 nM cAMP.
EC50 values were determined using Activity Base analysis (ID Business Solution, Limited). The EC50 values for a wide range of cannabinoid agonists generated from this assay were in agreement with the values published in the scientific literature.

For assay [2], the target named is T2, human CB2 receptors (Homo sapiens, UniProt P34972).
T2 construct: expressed in transfected cells; host or cells: CHO cells
T2 sequence (P34972 whole entry): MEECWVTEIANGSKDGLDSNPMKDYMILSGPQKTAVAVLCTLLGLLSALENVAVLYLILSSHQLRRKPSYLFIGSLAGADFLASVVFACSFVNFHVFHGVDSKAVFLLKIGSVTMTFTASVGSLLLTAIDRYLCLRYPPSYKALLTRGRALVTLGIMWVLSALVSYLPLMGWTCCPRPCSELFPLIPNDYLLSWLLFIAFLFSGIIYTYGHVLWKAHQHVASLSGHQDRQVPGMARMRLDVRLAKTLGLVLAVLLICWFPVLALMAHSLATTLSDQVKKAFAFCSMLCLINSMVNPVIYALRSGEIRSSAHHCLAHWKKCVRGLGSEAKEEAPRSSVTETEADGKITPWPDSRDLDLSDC
As to the kind of experiment: functional cAMP assay, CHO cells expressing human CB2. The assay is classed as cell-based. On the procedure:
The growth medium was exchanged with Krebs Ringer Bicarbonate buffer with 1 mM IBMX and incubated at 30° C. for 30 min. Compounds were added to a final assay volume of 100 μl and incubated for 30 min at 30° C. […] The time-resolved energy transfer is measured by a TRF reader (Evotec Technologies GmbH), equipped with a ND:YAG laser as excitation source. The plate is measured twice with the excitation at 355 nm and at the emission with a delay of 100 ns and a gate of 100 ns, total exposure time 10 s at 730 (bandwidth 30 nm) or 645 nm (bandwidth 75 nm), respectively.
EC50 values were determined using Activity Base analysis (ID Business Solution, Limited).
In general terms: Cyclic AMP is a second messenger, typically raised through Gs and lowered through Gi signalling.

Setting [3] is: CHO cells expressing human CB1, read-out: Ec50:CB1 - hu cAMP.
Setting [4] is: CHO cells expressing human CB2, read-out: Ec50:CB2 - hu cAMP.

Each structure is given as a SMILES string. Like-named read-outs stand apart in the source and are kept apart here. Bounds are passed on as bounds.

In general, EC50 refers to the concentration that produces a half-maximal response.

T1 sequence (P21554 whole entry): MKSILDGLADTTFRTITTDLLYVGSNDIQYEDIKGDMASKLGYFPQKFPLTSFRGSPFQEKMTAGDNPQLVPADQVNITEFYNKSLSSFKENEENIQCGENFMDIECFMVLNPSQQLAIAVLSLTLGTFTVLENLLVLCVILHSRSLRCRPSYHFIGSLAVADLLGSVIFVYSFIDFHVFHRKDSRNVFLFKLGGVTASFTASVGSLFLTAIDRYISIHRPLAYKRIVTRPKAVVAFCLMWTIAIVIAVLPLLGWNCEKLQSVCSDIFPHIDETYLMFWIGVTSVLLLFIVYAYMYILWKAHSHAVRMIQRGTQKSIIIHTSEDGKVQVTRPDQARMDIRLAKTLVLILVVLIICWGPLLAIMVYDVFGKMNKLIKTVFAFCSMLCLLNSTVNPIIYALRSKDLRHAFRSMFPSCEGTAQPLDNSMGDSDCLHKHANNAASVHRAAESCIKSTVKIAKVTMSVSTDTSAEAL

As to `O=C(N1Cc2cc(Cl)c(N3CCOCC3)cc2C1)C12CC3CC(CC(C3)C1)C2` [Example 43, Adamantan-1-yl-(5-chloro-6-morpholin-4-yl-1,3-dihydro-isoindol-2-yl)-methanone], the EC50 in assay [1] was > 10000 nM; in assay [2], 82.2 nM.
On to `O=C(N1Cc2cccc(F)c2C1)C12CC3CC(CC(C3)C1)C2` [Example 44, Adamantan-1-yl-(4-fluoro-1,3-dihydro-isoindol-2-yl)-methanone], for which the concentration for a half-maximal effect (EC50) was > 10000 nM in assay [1] (setting [3]) and 58.9 nM in assay [2] (setting [4]).
Taken in the same sequence, the figures for `O=C(N1Cc2ccc(F)cc2C1)C12CC3CC(CC(C3)C1)C2` [Example 45, Adamantan-1-yl-(5-fluoro-1,3-dihydro-isoindol-2-yl)-methanone] were > 10000 nM and 41.7 nM.
